Source: patent US8691947B2, “Materials related to sodium/potassium adenosine triphosphatase and Src” (The University of Toledo, priority 2010, dated 2014)
Entries after “also recorded” stand apart in the source; their conditions may differ.

What was measured:
[1] = molecular target: T1, Na/K-ATPase-associated Src (Sus scrofa, UniProt P05024); format: biochemical, pig; settings: for Effect on activity of Na/K-ATPase-associated Src, Na/K-ATPase stabilized in E1P: NEM and AMP-PNP used together; for Effect on activity of Na/K-ATPase-associated Src: purified pig kidney Na/K-ATPase treated with modifier or ouabain, incubated with purified Src
T1 construct: The Na/K-ATPase was purified from pig kidney and the purified Src was purchased from Upstate; tissue Upstate (for the Src chain); host or cells: pig kidney
Method: The Na/K-ATPase was purified from pig kidney and the purified Src was purchased from Upstate. To stabilize the Na/K-ATPase in the E2P conformation, the purified Na/K-ATPase was treated by two different fluoride compounds (BeF and AIF) as described, washed and then incubated with Src. The ouabain-treated and control Na/K-ATPase/Src complex was used as positive and negative controls for the experiments, respectively. Similarly, the Na/K-ATPase was stabilized at the E1P state by NEM/AMPPNP as described and then analyzed.
The purified Na/K-ATPase was subjected to chymotrypsin or trypsin digestion as described. The digested enzyme was washed and assayed for Na/K-ATPase activity. The enzyme preparations with less than 25% activity was incubated with Src in 150 mM Na^+ medium in the presence or absence of 10 μM ouabain. The non-digested enzyme was used as control. […] Quantitative data was presented as mean±S.E. of at least 3 separate experiments. *, p<0.05; **, p<0.01.
The inventors utilized different chemical modifiers to stabilize the Na/K-ATPase in distinct conformational states and then assessed the conformation-dependent effect of Na/K-ATPase on Src. Fluoride compounds such as aluminum fluoride and beryllium fluoride, can interact with Na/K-ATPase as phosphate analogues, and stabilize the enzyme as well as other P-type ATPase in the E2P conformation.

[2] = tested on: LLC-PK1 cells; experiment: Western blot of Src and ERKs in LLC-PK1 cell lysates; format: cell-based
Method: FIG. 3E, FIG. 3F, and FIG. 3G: Cells were exposed to media containing different concentrations of K^+ or Na^+, and then lysed. Cell lysates were subjected to Western blot analyses of Src and ERKs as indicated. Quantitative data was presented as mean±S.E. of at three independent experiments. *, p<0.05; **, p<0.01.
To verify these findings, the inventors also conducted Western blot analyses of cell lysates after the cells were incubated in normal or low K^+ medium.

[3] = molecular target: T2, Na/K-ATPase/Src complex (Homo sapiens, UniProt P12931); experiment: Ouabain-induced Src activation (Tyr418 autophosphorylation, Western blot) in a mixture of purified Na/K-ATPase and Src; format: biochemical; settings: Src preincubated with peptide 15 min, pig kidney Na/K-ATPase 15 min, 1 μM ouabain 5 min, 2 mM ATP/Mg2+
T2 construct: purchased
Method: FIG. 4. […] CD2C2 peptide was incubated with purified Src (the amount was indicated as molar ratio of Src/Cd2C2) for 15 minutes in PBS solution. Then purified Na/K-ATPase from pig kidney was added for another 15 minutes. After that, ouabain was added to the reaction system for 5 minutes, followed by addition of 2 mM Mg2+/ATP. The Src activity was determined by Western blot probing with anti-phosphorylated Tyr418. A representative Western blot was shown, and quantitative data was presented as mean±S.E. of at 3 separate experiments. **, p<0.01.
FIG. 7B, antagonizing ouabain-induced Src activation by CD2C2. Src was preincubated with indicated amount of CD2C2 peptide for 15 min in PBS. […] Then Src autophosphorylation was detected in the presence of 2 mM ATP/Mg^2+. […]
To support this notion, the inventors checked whether the peptides derived from C-terminus of CD2 can attenuate the binding between CD2 and Src. […] Then pull-down pellets were analyzed by Western blot with antibody against Src. […] Then Src autophosphorylation was detected in the presence of 2 mM ATP/Mg^2+. […]
The inventors incubated the test chemicals with commercially available purified Src for 15 minutes in PBS solution. […] The Src activity was determined by Western blot probing with anti-phosphorylated Tyr418. […] Both peptides were incubated in a 96 well plate, and the FRET energy transfer was measured using a spectra meter. […]

[4] = molecular target: Src SH2 domain (Homo sapiens, UniProt P12931); experiment: GST pull-down of GST-CD2 binding to Src in the absence and presence of peptides; settings: peptide incubated with GST-CD2 and Src for 15 min, Western blot with anti-Src antibody
Method: CD2C2 was added to a mixture of Src and GST-CD2 at indicated concentrations. Src in the pull-down products was analyzed by Western blot with anti-Src antibody.
To support this notion, the inventors checked whether the peptides derived from C-terminus of CD2 can attenuate the binding between CD2 and Src. Purified GST-CD2 was incubated with Src in the absence and presence of peptides for 15 min. Then pull-down pellets were analyzed by Western blot with antibody against Src. […] If CD2C2 peptide disrupts the SH2/CD2 interaction, the inventors expect that CD2C2 may abolish CTS-induced Src activation. To test that, the inventors preincubated Src with indicated amount of CD2 peptides for 15 min in PBS. Then purified pig kidney Na/K-ATPase was added for another 15 min. 1 μM ouabain was added to mixture for 5 min. Then Src autophosphorylation was detected in the presence of 2 mM ATP/Mg^2+. […] Therefore, to search for new antagonists, the inventors will perform the following four sets of experiments.

Compound	Effect on activity of Na/K-ATPase-associated Src, Na/K-ATPase stabilized in E1P [1]	Effect on activity of Na/K-ATPase-associated Src [1]	also measured
Nc1ncnc2c1ncn2[C@@H]1O[C@H](COP(=O)(O)OP(=O)(O)NP(=O)(O)O)[C@@H](O)[C@H]1O [AMP-PNP, adenyl-5′-yl imidodiphosphate]	completely inhibited	–	–
CCN1C(=O)C=CC1=O [NEM, N-ethylmaleimide]	completely inhibited	–	–
[Be+2].[F-].[F-] [beryllium fluoride]	–	sufficient to stimulate the Na/K-ATPase-associated Src	–
C[C@@H]1O[C@@H](O[C@H]2C[C@@H](O)[C@]3(CO)[C@H]4[C@H](O)C[C@]5(C)[C@@H](C6=CC(=O)OC6)CC[C@]5(O)[C@@H]4CC[C@]3(O)C2)[C@H](O)[C@H](O)[C@H]1O [ouabain]	–	able to stimulate the Na/K-ATPase-associated Src	Effect on cellular Src activity and ERKs [2]: stimulated cellular Src activity
STNCV EGTAR GIVVY TGD (STNCVEGTARGIVVYTGD; listed as Sus scrofa) [CD2C2, peptide derived from C-terminus of CD2 of Na/K-ATPase α1 subunit; ouabain antagonist]	–	–	Antagonism of ouabain-induced Src activation [3]: potent ouabain antagonist; also recorded: abolished ouabain-induced Src activation in a dose-dependent manner; Antagonism of ouabain-induced Src activation ([3]; listed as SEQ ID NO:1): abolishes ouabain-induced Src stimulation; Competition with binding of GST-CD2 to Src (Src in pull-down products) [4]: attenuates the binding of CD2 to Src; also recorded: able to compete with and block the binding of GST-CD2 to Src SH2 domain; Competition with binding of GST-CD2 to Src (Src in pull-down products) ([4]; listed as SEQ ID NO:1): disrupts the interaction of the ATPase CD2/Src SH2 domain
aluminum fluoride	–	sufficient to stimulate the Na/K-ATPase-associated Src	–
